In PMC9279640 (Acta Pharmaceutica Sinica. B, 2021):

Assays:
Format in all cases: binding
[1] = molecular target: APOE (apolipoprotein E) (Homo sapiens, UniProt P02649); assay: microscale thermophoresis with labelled recombinant APOE
[2] = molecular target: T1, rat TREM2 (rTREM2) (Rattus norvegicus, UniProt A0A6G8MV71); assay: microscale thermophoresis with labelled recombinant TREM2
T1 sequence (A0A6G8MV71 19-229): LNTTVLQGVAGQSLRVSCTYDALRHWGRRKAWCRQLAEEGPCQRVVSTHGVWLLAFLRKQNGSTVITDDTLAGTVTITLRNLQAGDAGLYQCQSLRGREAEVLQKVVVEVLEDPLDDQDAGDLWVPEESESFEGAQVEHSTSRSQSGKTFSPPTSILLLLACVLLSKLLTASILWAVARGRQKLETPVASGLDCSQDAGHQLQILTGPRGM

[3] = molecular target: T2, human TREM2 (hTREM2) (Homo sapiens, UniProt Q9NZC2); assay: microscale thermophoresis
T2 sequence (Q9NZC2 19-230): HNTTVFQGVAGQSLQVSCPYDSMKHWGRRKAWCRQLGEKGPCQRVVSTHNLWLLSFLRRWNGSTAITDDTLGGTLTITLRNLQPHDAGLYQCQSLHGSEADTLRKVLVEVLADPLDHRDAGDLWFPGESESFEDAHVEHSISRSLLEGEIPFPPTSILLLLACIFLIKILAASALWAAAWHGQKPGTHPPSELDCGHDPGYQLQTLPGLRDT

[4] = molecular target: T3, TREM2 D104A (hTREM2) (Homo sapiens, UniProt Q9NZC2, D104A); assay: microscale thermophoresis with labelled TREM2 D104A
T3 sequence (Q9NZC2 19-174 D104A limits assumed): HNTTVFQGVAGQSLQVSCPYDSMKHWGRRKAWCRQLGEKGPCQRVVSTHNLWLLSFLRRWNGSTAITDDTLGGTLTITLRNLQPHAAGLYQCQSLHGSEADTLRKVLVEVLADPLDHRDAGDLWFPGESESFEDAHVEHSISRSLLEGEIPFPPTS

[5] = molecular target: T4, mouse TREM2 (mTREM2) (Mus musculus, UniProt Q99NH8); assay: microscale thermophoresis
T4 sequence (Q99NH8 19-227): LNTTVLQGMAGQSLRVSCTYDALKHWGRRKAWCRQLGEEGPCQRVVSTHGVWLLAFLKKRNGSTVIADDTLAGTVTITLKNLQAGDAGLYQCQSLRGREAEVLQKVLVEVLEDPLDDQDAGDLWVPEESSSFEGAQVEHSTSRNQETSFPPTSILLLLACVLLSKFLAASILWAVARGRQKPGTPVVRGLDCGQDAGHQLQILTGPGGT

[6] = molecular target: T2, human TREM2 (hTREM2); assay: microscale thermophoresis with labelled recombinant TREM2
[7] = molecular target: T4, mouse TREM2 (mTREM2); assay: as above

APOE (apolipoprotein E), sequence (P02649 19-317): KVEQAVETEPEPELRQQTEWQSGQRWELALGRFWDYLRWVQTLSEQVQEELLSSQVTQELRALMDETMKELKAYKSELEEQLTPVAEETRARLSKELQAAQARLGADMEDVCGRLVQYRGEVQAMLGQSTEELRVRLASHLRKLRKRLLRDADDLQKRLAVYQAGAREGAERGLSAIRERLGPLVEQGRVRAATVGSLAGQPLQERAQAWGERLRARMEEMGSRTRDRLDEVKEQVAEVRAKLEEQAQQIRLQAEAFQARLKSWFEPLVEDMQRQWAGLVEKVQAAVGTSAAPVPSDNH

Kd [1] | Kd [2] | Kd [3] | Kd [4] | Kd [5] | Kd [6] | Kd [7] | SMILES
6.64 ± 1.68 µM | 56.8 ± 14 µM | 62.6 ± 11.9 µM | 593 ± 97.6 µM | 64.6 ± 16.6 µM | – | – | CCCCCCCCCCCCC/C=C/[C@@H](O)[C@@H](N)COP(=O)(O)O [S1P]
15.9 ± 7.41 µM | 7.17 ± 2.21 µM | – | – | – | 6.75 ± 1.8 µM | 72.6 ± 21 µM | CCCCCCCCc1ccc(CC[C@](N)(CO)COP(=O)(O)O)cc1 [FTY720P]
